Here are results for three molecules from ChEMBL document CHEMBL1152694, “Synthetic medicinal chemistry of selected antimalarial natural products” (Bioorg Med Chem, 2009).

As usually defined, the ED50 is the midpoint of the dose-response relation. Read a high ED50 as weaker potency.

One series deals with Plasmodium berghei. In words: Antimalarial activity against Plasmodium berghei infected mice (Mus musculus). The series is classed as functional.
A short description of series [1]: Selectivity ratio of cytotoxicity to human KB cells to antimalarial activity against Plasmodium falciparum. The series is classed as cell-based.

As for `CC1(C)[C@@H](n2cnc3ccccc3c2=O)C(=O)C[C@@H]2[C@@H](O)CCCN21`, the 50% effect level with Plasmodium berghei (ED50) was put at a dose of 6 µmol/kg. Take `CC1(C)[C@H](n2cnc3ccccc3c2=O)CC[C@H]2[C@@H](O)CCCN21`: the ED50 in the series with Plasmodium berghei worked out at 145 µmol/kg. Consider `CC[C@](C)(O)C(=O)O[C@H]1C(=O)O[C@@H]2C[C@H]3C(C)=CC(=O)[C@@H](O)[C@]3(C)[C@H]3[C@@]4(O)OC[C@]32[C@@H]1[C@@H](C)[C@H]4O` [GLAUCARUBINONE], for which, in series [1], the selectivity ratio stood at 285.
